Data reported in ChEMBL document CHEMBL5724914, “Linking interpersonal differences in gut microbiota composition and drug biotransformation activity” (2024).

Details: human gut metagenome, 24 h, 2 µM
Also: call rule not given here.

| Bacterial Biotransformation | Structure (SMILES) |
| --- | --- |
| Compound metabolized | CC(C)OC(=O)C(C)(C)Oc1ccc(C(=O)c2ccc(Cl)cc2)cc1 [FENOFIBRATE] |
| Compound metabolized | CCCCCOC(=O)Nc1nc(=O)n([C@@H]2O[C@H](C)[C@@H](O)[C@H]2O)cc1F [CAPECITABINE] |

Details: human gut metagenome, 24 h, 2 µM
Remark: another data set of the same source

| Bacterial Biotransformation | Structure (SMILES) |
| --- | --- |
| Compound metabolized | CC(C)OC(=O)C(C)(C)Oc1ccc(C(=O)c2ccc(Cl)cc2)cc1 [FENOFIBRATE] |
| Compound metabolized | CCCCCOC(=O)Nc1nc(=O)n([C@@H]2O[C@H](C)[C@@H](O)[C@H]2O)cc1F [CAPECITABINE] |

Assay: (§1) The drug is tested on Z-025 corresponding to rabbit gut metagenome with ENA study accession number: PRJEB37062 and ENA sample accession number: ERS12561824 for biotransformation under anaerobic condition. The drug concentrations were measured over 9 timepoints collected between 0 and 24 hours of incubation by liquid-chromatography-coupled mass spectrometry (LC–MS)
Details: 2 µM

| Bacterial Biotransformation | Structure (SMILES) |
| --- | --- |
| Compound metabolized | CC(C)OC(=O)C(C)(C)Oc1ccc(C(=O)c2ccc(Cl)cc2)cc1 [FENOFIBRATE] |
| Compound metabolized | CCCCCOC(=O)Nc1nc(=O)n([C@@H]2O[C@H](C)[C@@H](O)[C@H]2O)cc1F [CAPECITABINE] |

Details: human gut metagenome, 24 h, 2 µM
Remark: another data set of the same source

| Bacterial Biotransformation | Structure (SMILES) |
| --- | --- |
| Compound NOT metabolized | CC(C)OC(=O)C(C)(C)Oc1ccc(C(=O)c2ccc(Cl)cc2)cc1 [FENOFIBRATE] |
| Compound metabolized | CCCCCOC(=O)Nc1nc(=O)n([C@@H]2O[C@H](C)[C@@H](O)[C@H]2O)cc1F [CAPECITABINE] |

Details: human gut metagenome, 24 h, 2 µM
Remark: another data set of the same source

| Bacterial Biotransformation | Structure (SMILES) |
| --- | --- |
| Compound NOT metabolized | CC(C)OC(=O)C(C)(C)Oc1ccc(C(=O)c2ccc(Cl)cc2)cc1 [FENOFIBRATE] |
| Compound metabolized | CCCCCOC(=O)Nc1nc(=O)n([C@@H]2O[C@H](C)[C@@H](O)[C@H]2O)cc1F [CAPECITABINE] |

Details: human gut metagenome, 24 h, 2 µM
Remark: another data set of the same source

| Bacterial Biotransformation | Structure (SMILES) |
| --- | --- |
| Compound NOT metabolized | CC(C)OC(=O)C(C)(C)Oc1ccc(C(=O)c2ccc(Cl)cc2)cc1 [FENOFIBRATE] |
| Compound metabolized | CCCCCOC(=O)Nc1nc(=O)n([C@@H]2O[C@H](C)[C@@H](O)[C@H]2O)cc1F [CAPECITABINE] |

Assay: as §1, with “Z-030” for “Z-025”, “mouse” for “rabbit”, “ERS12561829” for “ERS12561824”
Details: 2 µM

| Bacterial Biotransformation | Structure (SMILES) |
| --- | --- |
| Compound metabolized | CC(C)OC(=O)C(C)(C)Oc1ccc(C(=O)c2ccc(Cl)cc2)cc1 [FENOFIBRATE] |
| Compound metabolized | CCCCCOC(=O)Nc1nc(=O)n([C@@H]2O[C@H](C)[C@@H](O)[C@H]2O)cc1F [CAPECITABINE] |

Details: human gut metagenome, 24 h, 2 µM
Remark: another data set of the same source

| Bacterial Biotransformation | Structure (SMILES) |
| --- | --- |
| Compound metabolized | CC(C)OC(=O)C(C)(C)Oc1ccc(C(=O)c2ccc(Cl)cc2)cc1 [FENOFIBRATE] |
| Compound metabolized | CCCCCOC(=O)Nc1nc(=O)n([C@@H]2O[C@H](C)[C@@H](O)[C@H]2O)cc1F [CAPECITABINE] |

Details: human gut metagenome, 24 h, 2 µM
Remark: another data set of the same source

| Bacterial Biotransformation | Structure (SMILES) |
| --- | --- |
| Compound metabolized | CC(C)OC(=O)C(C)(C)Oc1ccc(C(=O)c2ccc(Cl)cc2)cc1 [FENOFIBRATE] |
| Compound metabolized | CCCCCOC(=O)Nc1nc(=O)n([C@@H]2O[C@H](C)[C@@H](O)[C@H]2O)cc1F [CAPECITABINE] |

Details: human gut metagenome, 24 h, 2 µM
Remark: another data set of the same source

| Bacterial Biotransformation | Structure (SMILES) |
| --- | --- |
| Compound metabolized | CC(C)OC(=O)C(C)(C)Oc1ccc(C(=O)c2ccc(Cl)cc2)cc1 [FENOFIBRATE] |
| Compound metabolized | CCCCCOC(=O)Nc1nc(=O)n([C@@H]2O[C@H](C)[C@@H](O)[C@H]2O)cc1F [CAPECITABINE] |

Assay: as §1, with “WLS-086” for “Z-025”, “human” for “rabbit”, “ERS12561752” for “ERS12561824”
Details: 2 µM

| Bacterial Biotransformation | Structure (SMILES) |
| --- | --- |
| Compound metabolized | CC(C)OC(=O)C(C)(C)Oc1ccc(C(=O)c2ccc(Cl)cc2)cc1 [FENOFIBRATE] |
| Compound metabolized | CCCCCOC(=O)Nc1nc(=O)n([C@@H]2O[C@H](C)[C@@H](O)[C@H]2O)cc1F [CAPECITABINE] |

Assay: as §1, with “Z-019” for “Z-025”, “rat” for “rabbit”, “ERS12561818” for “ERS12561824”
Details: 2 µM

| Bacterial Biotransformation | Structure (SMILES) |
| --- | --- |
| Compound NOT metabolized | CC(C)OC(=O)C(C)(C)Oc1ccc(C(=O)c2ccc(Cl)cc2)cc1 [FENOFIBRATE] |
| Compound NOT metabolized | CCCCCOC(=O)Nc1nc(=O)n([C@@H]2O[C@H](C)[C@@H](O)[C@H]2O)cc1F [CAPECITABINE] |

Assay: as §1, with “Z-023” for “Z-025”, “to” for “to rabbit gut”, “ERS12561822” for “ERS12561824”
Details: 2 µM

| Bacterial Biotransformation | Structure (SMILES) |
| --- | --- |
| Compound metabolized | CC(C)OC(=O)C(C)(C)Oc1ccc(C(=O)c2ccc(Cl)cc2)cc1 [FENOFIBRATE] |
| Compound metabolized | CCCCCOC(=O)Nc1nc(=O)n([C@@H]2O[C@H](C)[C@@H](O)[C@H]2O)cc1F [CAPECITABINE] |

Details: human gut metagenome, 24 h, 2 µM
Remark: another data set of the same source

| Bacterial Biotransformation | Structure (SMILES) |
| --- | --- |
| Compound metabolized | CC(C)OC(=O)C(C)(C)Oc1ccc(C(=O)c2ccc(Cl)cc2)cc1 [FENOFIBRATE] |
| Compound metabolized | CCCCCOC(=O)Nc1nc(=O)n([C@@H]2O[C@H](C)[C@@H](O)[C@H]2O)cc1F [CAPECITABINE] |

Assay: as §1, with “Z-016” for “Z-025”, “mouse” for “rabbit”, “ERS12561815” for “ERS12561824”
Details: 2 µM

| Bacterial Biotransformation | Structure (SMILES) |
| --- | --- |
| Compound metabolized | CC(C)OC(=O)C(C)(C)Oc1ccc(C(=O)c2ccc(Cl)cc2)cc1 [FENOFIBRATE] |
| Compound metabolized | CCCCCOC(=O)Nc1nc(=O)n([C@@H]2O[C@H](C)[C@@H](O)[C@H]2O)cc1F [CAPECITABINE] |

Assay: as §1, with “WLS-310” for “Z-025”, “human” for “rabbit”, “ERS12561785” for “ERS12561824”
Details: 2 µM

| Bacterial Biotransformation | Structure (SMILES) |
| --- | --- |
| Compound metabolized | CC(C)OC(=O)C(C)(C)Oc1ccc(C(=O)c2ccc(Cl)cc2)cc1 [FENOFIBRATE] |
| Compound metabolized | CCCCCOC(=O)Nc1nc(=O)n([C@@H]2O[C@H](C)[C@@H](O)[C@H]2O)cc1F [CAPECITABINE] |

Assay: as §1, with “Z-014” for “Z-025”, “rat” for “rabbit”, “ERS12561814” for “ERS12561824”
Details: 2 µM

| Bacterial Biotransformation | Structure (SMILES) |
| --- | --- |
| Compound metabolized | CC(C)OC(=O)C(C)(C)Oc1ccc(C(=O)c2ccc(Cl)cc2)cc1 [FENOFIBRATE] |
| Compound NOT metabolized | CCCCCOC(=O)Nc1nc(=O)n([C@@H]2O[C@H](C)[C@@H](O)[C@H]2O)cc1F [CAPECITABINE] |

Assay: as §1, with “Z-018” for “Z-025”, “pig” for “rabbit”, “ERS12561817” for “ERS12561824”
Details: 2 µM

| Bacterial Biotransformation | Structure (SMILES) |
| --- | --- |
| Compound metabolized | CC(C)OC(=O)C(C)(C)Oc1ccc(C(=O)c2ccc(Cl)cc2)cc1 [FENOFIBRATE] |
| Compound metabolized | CCCCCOC(=O)Nc1nc(=O)n([C@@H]2O[C@H](C)[C@@H](O)[C@H]2O)cc1F [CAPECITABINE] |

Details: human gut metagenome, 24 h, 2 µM
Remark: another data set of the same source

| Bacterial Biotransformation | Structure (SMILES) |
| --- | --- |
| Compound NOT metabolized | CC(C)OC(=O)C(C)(C)Oc1ccc(C(=O)c2ccc(Cl)cc2)cc1 [FENOFIBRATE] |
| Compound metabolized | CCCCCOC(=O)Nc1nc(=O)n([C@@H]2O[C@H](C)[C@@H](O)[C@H]2O)cc1F [CAPECITABINE] |

Details: human gut metagenome, 24 h, 2 µM
Remark: another data set of the same source

| Bacterial Biotransformation | Structure (SMILES) |
| --- | --- |
| Compound metabolized | CC(C)OC(=O)C(C)(C)Oc1ccc(C(=O)c2ccc(Cl)cc2)cc1 [FENOFIBRATE] |
| Compound metabolized | CCCCCOC(=O)Nc1nc(=O)n([C@@H]2O[C@H](C)[C@@H](O)[C@H]2O)cc1F [CAPECITABINE] |
